The test system of this test is co-culture of Human Umbilical Vein Endothelial Cells (HUVEC) with Human Adult Dermal Fibroblasts. Briefly: multicellular in vitro angiogenesis (tubule) assay, dual culture of HUVEC and fibroblasts. The class given is cell-based. The following applies: VEGF 10 ngml^-1 added at the start and at each medium change; 14 days; von Willebrand factor immunoassay. The text has this: The assay system involves co-culture of Human Umbilical Vein Endothelial Cells (HUVEC) with Human Adult Dermal Fibroblasts. Under the conditions provided the cells form a series of anastomosed tubules.
The Human Umbilical Vein Endothelial Cells (HUVEC) are commercially available from suitable outlets and in this case are bought in cryopreserved form. Prior to employment in the tubule assay, the cells are routinely passed and cultured in any suitable commercially available Endothelial Growth Medium, EGM, containing 2% foetal calf serum. The HUVEC are used at passes 2 to 6 in the assay.
The Human Adult Dermal Fibroblasts are cultured from skin samples which may be obtained from local hospitals. […]
The tissue culture treated vessels to be used in the assay are equilibrated by pre-incubation with EGM, plus and minus treatments, for a period of 30 minutes at 37° C., 5% CO2 humidified atmosphere. […] The cells are resuspended in EGM and counted. […] The techniques and materials involved in culturing endothelial cells are well known to persons of skill in the art, and are readily available from standard texts. […]
Visualization of the tubules is accomplished most readily by an immunoassay that targets a cell marker on one or both of the cells being cultured. […]

“Also recorded” adds a separate entry of the source.

With VEGF, the tubule formation entry is recorded as “marked increase; also recorded: much enhanced”.

Values taken from patent US6475790B2, “Assay for screening agents that alter angiogenesis” (Biocure Limited, priority 1997, dated 2002).
